Patent publication US11873321B2, “Compositions and methods for treating alzheimer's disease” (Generos Biopharma Ltd., priority 2017, dated 2024)

How the values were obtained:
SH-SY5Y cells = conditions: co-treatment with 25-OHC, cells lysed 24 h later, blotted for APP
[1] = system: APP over-expression SH-SY5Y cell line; assay: Western blot of APP in cell lysate and in exosomes purified from the medium after 25-OHC treatment; type: cell-based, human; conditions: different dosage of 25-OHC
Experimental: (§1) FIGS. 8A-8C show graphs and images depicting that treatment with 25-OHC decreased exosomal APP but increases intracellular APP. SH-SY5Y cells with APP over-expression were treated with different dosage of 25-OHC.
(§2) SH-SY5Y cells over-express human APP were cultured in DMEM with 10% FBS. One day before exosome preparation, medium was changed to blank DMEM to avoid the contamination of serum exosomes. 24 hour after medium change, the mediums were collected, and spin at 200 g for 5 min to pellet down floating cells. The cell free medium was further centrifuged at 100,000 g for 1 h at 4° C., and the pellet containing exosomes was dissolved in RIPA buffer
We used APP over-expression SH-SY5Y cell line to further check if the difference in exosomal APP is due to 25-OHC. Cells were treated with different dosage of 25-OHC and both cell lysate and exosomes from medium were collected. […] In contract, as the dosage of 25-OHC increased, more APP was found in the cell lysate fraction.

[2] = system: APP over-expression SH-SY5Y cell line; assay: FACS analysis of surface APP; type: cell-based, human; conditions: 25-OHC treated vs control cells
Experimental: as §1
More amounts of APP were detected on the cell surface of cells overexpressing APP after 25-OHC treatment.

[3] = system: APP over-expression SH-SY5Y cell line; assay: ELISA measurement of Aβ42 in exosomes collected from cell culture medium; type: cell-based, human; conditions: different concentration of 25-OHC; three independent experiments
Experimental: ELISA measurement of Aβ42 in exosomes collected from cell culture medium with different concentration of 25-OHC treatment. Data are representative of three independent experiments. *p<0.05.
as §2
Quantification of Aβ42 was carried out with ELISA kit (Millipore) according to the manufactures' instructions.
Data are representative of three independent experiments.

APP trafficking in cells = assay: Trafficking of antibody-labelled surface APP (fixed time points, time-lapse); type: cell-based; conditions: 25-OHC treated vs untreated cells; in untreated cells signal disappeared within 6 hours
Experimental: FIGS. 10A-10C show images depicting increased retention time of APP inside cells after treatment with 25-OHC. […] Cells were fixed at different time points to check the distribution of APP at specific time.
We went on to check the trafficking of APP protein. Surface APP were labeled by antibody, and cells were put back to incubator and fixed at different time point for staining.

APP/PS1 mice = conditions: 2-month-old, injected every other day for 1 month, vs saline
Experimental: Mice at 2-month-old were injected with 25-OHC or saline as control every other day for duration of 1 month. Brains from these mice were sectioned and stained for amyloid-beta.
All experiments were performed with mice 3-4 months old and approved by the Institutional Animal Care and Use Committee of NUS.
Tissues were fixed in 4% paraformaldehyde, dehydrated, penetrated and paraffin embedded. […] For immunofluorescence (IF) or immunohistochemistry (IHC), sections were rehydrated and stained with primary antibody against Aβ (Cell signaling), followed by incubation with fluorescence-conjugated secondary antibodies (Invitrogen).

| SMILES | effect on 25-OHC induced increase of cellular APP (SH-SY5Y cells) | cellular APP (cell lysate, Western blot) ([1]; APP over-expression SH-SY5Y cells) | exosomal APP (Western blot) ([1]; exosomes from medium) | amount of APP on cell surface (FACS) [2] | Aβ42 in exosomes (ELISA) [3] | trafficking / retention of APP in cells (APP trafficking in cells) | amount of Aβ in brain (plaque staining) (APP/PS1 mice) |
| --- | --- | --- | --- | --- | --- | --- | --- |
| CC(C)(C)C(=O)OCC(=O)[C@@]1(O)CC[C@H]2[C@@H]3CCC4=CC(=O)C=C[C@]4(C)[C@H]3[C@@H](O)C[C@@]21C [prednisolone trimethylacetate] | had no effect |  |  |  |  |  |  |
| C[C@H](CCCC(C)(C)O)[C@H]1CC[C@H]2[C@@H]3CC=C4C[C@@H](O)CC[C@]4(C)[C@H]3CC[C@]12C [25-OHC, 25-hydroxylated cholesterol] |  | dosage dependent effect to increase cellular APP | decreasing exosomal APP | increased the amount of APP on cell surface | increased Aβ42 in exosomes | the trafficking of APP was slower | significant high amount of Aβ |
